# Laboratory results reported in patent US8865672B2, “Prevention of tissue ischemia and related methods” (The United States of America, as represented by the …, priority 2006, dated 2014).
# Columns and labels:
# [1] = test system: HAVSMC; experiment: 3D collagen matrix contraction assay, human aortic VSMC; assay type: cell-based; settings: for TSP1 block of NO relaxation of FCS-induced gel contraction: human aortic VSMC pretreated with 10 μM morpholino
# Procedure: Type I collagen gel (3 mg/ml) with 10×M199 (Gibco, Grand Island, N.Y.) at a 10:1 ratio of collagen to medium was prepared, pH balanced with NaOH and seeded with either HAVSMC or VSMC harvested from aortic segments from C57B16 WT or TSP1 null mice (50,000 cells in 75 μl of gel/well) and aliquoted to 96-well plates (Nunc, Denmark). Plates were incubated for 12 h 37° C. and 5% CO2 allowing for gelation and cell spreading, gently released from the well walls and incubated in serum and additive deficient growth medium with 0.1% BSA in the presence of the indicated treatment agents for 10 h. Contraction was determined by measuring the diameter in perpendicular planes (x, y) of each disk, an average obtained and surface area calculated as (d/2)^2π. Experiments were performed in triplicate. Results represent the mean±SD of at least three separate experiments.
# (§1) Human aortic VSMC were plated onto 12-well culture plates (Nunc) at a density of 5×10^4 cells/well in SM-GM+2% FCS and cultured until approximately 90% confluent. A translation-blocking antisense morpholino oligonucleotide complementary to human and murine CD47 ([…]; SEQ ID NO: 21) and a five-base mismatch control (CGTgACAGcCAcGACCgACTGCgCA; SEQ ID NO: 22) were obtained from GeneTools (Philomath, Oreg.). Cultured cells were treated as per the manufacturer's recommendation with morpholinos (10 μM) and utilized within 48 hours of treatment.
# [2] = test system: random myocutaneous flaps in mice; experiment: Random myocutaneous (McFarlane) flap model; assay type: in vivo, mouse
# Procedure: WT and TSP1 null mice were matched for sex and age. Under isoflurane inhalation anesthesia 1×2 cm random myocutaneous flaps were raised. Where indicated, animals received either L-NAME (0.5 mg/ml) or ISDN (1 mg/ml) ad libitum in drinking water during the post-operative period. On postoperative day 7, the animals were again anesthetized with inhalation isoflurane and flaps evaluated. Viable and necrotic areas of the flaps were determined by color, refill, eschar, and the pin-prick test. Outlines of viable and nonviable areas were traced using transparent film and the area of flap necrosis versus total flap area determined as described (Yu et al., Proc Natl Acad Sci USA 102:10999-11004, 2005).
# Wild type, TSP1 null, CD36 null and CD47 null mice were matched for sex and age underwent random dorsal myocutaneous flaps as described (Isenberg et al., Blood 2006; Example 2) and tissue harvested on postoperative day 7.
# The necrotic area of the flap was determined as described (Isenberg et al., Blood. Nov. 2, 2006) Animals were then euthanized and flaps excised, fixed in 10% paraformaldehyde and processed for histology.
# Random myocutaneous flap wound beds and/or ischemic hindlimb vastus medialis muscle was assessed at indicated time points (72 hours or 7 days post-operatively) for visible alterations in vascularity under 5× magnification. An arbitrary though strictly applied definition of countable vessels was employed to highlight both individual vessels and vascular ramifications. In any given vascular plexus visible by 5× magnification a vessel was defined as that segment traversing two branches. Visible vessels without ramifications and branches were counted once. Treatment status and genetic background of tissue images was not known by the reviewer.
# Animals underwent creation of a random myocutaneous (McFarlane) flap as previously described (Isenberg et al., Blood 109:1945-1952, 2007). Some animals received either ISDN (1 mg/mL) or L-NAME (0.5 mg/ml) ad libitum in the drinking water during the post-operative interval.
# Flap soft tissue units and underling wound beds were injected with control vehicle (normal saline), a CD47 morpholino or a control morpholino (10 μM) in sterile saline. Flap survival was determined as described.
# [3] = test system: human aortic VSMC; experiment: Intracellular cGMP in human aortic VSMC after morpholino; assay type: cell-based; settings: for TSP1 inhibition of NO-driven cGMP accumulation: human aortic VSMC pre-treated with morpholino
# Procedure: as §1
# cGMP was determined in human aortic VSMC via immunoassay as described (Isenberg et al., Blood 2006; Example 2). In some situations cells were pretreated with a CD47 or control morpholino prior to assay.
# [4] = test system: random dorsal cutaneous flaps in white hairless Yucatan miniature pigs; experiment: Porcine random cutaneous flap model; assay type: in vivo, pig; settings: for flap necrosis: 2×10 cm flaps, injection at surgery
# Procedure: Animals underwent shaving of the dorsal surface hair and cleansing of the skin with soap and alcohol. Random dorsal cutaneous flaps 2×10×0.5 cm were elevated and immediately sutured in place with interrupted 4-0 nylon suture (Ethicon, Johnson & Johnson, N.J.). Treated flaps were injected with the indicated amounts of drug in sterile normal saline. On the 3 and 7 post-operative days tissue survival was determined and flaps excised for histology. In some instances animals received intravenous fluorescein prior to euthanasia and flap perfusion assessed under ultra violet illumination.
# Clinical assessment of flap perfusion was performed with notation of color, capillary refill and bleeding to needle stick being recorded. Flap dimensions were then traced onto a clear plastic sheet and with demarcation of viable and non-viable areas made.
# The internal jugular vein and common carotid arteries were cannulated and the animals perfused with a volume of 5 L heparinized (50 U/mL) normal saline heated to 50° C. A mixture of India ink and gelatin (5%) heated to 50° C. (1 L) was administered by gently pressing and then releasing the plunger of the syringe to simulate the arterial pulse. The flaps were excised and placed in 100% glycerin and stored at 4° C. for 10 days. During this time flap tissue became thin, desiccated and transparent and allowed visualization of the vascular architecture under direct transillumination.
# [5] = WT mice 14-18 months, injected to flap and wound bed
# [6] = wild type flaps, local injection, day 7
# [7] = wild type flaps, morpholino 10 μM
Substance,TSP1 block of NO relaxation of FCS-induced gel contraction [1],"flap tissue survival ([2]; ApoE-null mice 12-16 months, high fat diet, day 7) [%]","flap tissue survival [2, 5]",flap mitochondrial viability ([2]; aged WT flaps),remodeling of collateral flap vessels ([2]; aged WT flaps),"flap tissue survival [2, 6]","CD47 immunohistochemical staining of flaps [2, 7]","wound bed vascularity [2, 7]",TSP1 inhibition of NO-driven cGMP accumulation [3],flap necrosis [4] [%],flap tissue survival ([4]; compared to untreated flaps),India ink staining of flap vessels ([4]; post-operative day 3),"inhibitory activity of NO on gel contraction ([1]; HAVSMC, DETA/NO 10 μM, TSP1 2.2 nM)",NO-driven cGMP flux ([3]; untreated VSMC)
CGTCACAGGCAGGACCCACTGCCCA (all phosphorodiamidate morpholino (PMO)) [CD47 morpholino],TSP1 was not able to block this relaxation,84±7,91±4%,markedly increased,substantial remodeling of existing collateral flap vessels,~100%,decreased protein staining,substantial increases in visible blood vessels,essentially blind to the inhibitory effects of TSP1,12±3,significantly more tissue survival,–,–,–
"CGTgACAGcCAcGACCgACTGCgCA (antisense CGTGACAGCCACGACCGACTGCGCA; all phosphorodiamidate morpholino (PMO)) [control morpholino, reference compound]",remained sensitive to TSP1 inhibition,–,degrees of tissue necrosis comparable to untreated aged WT animals,–,–,necrosis comparable to that for untreated wild type flaps,–,–,retained sensitivity to inhibition,34±6,–,lack of India ink staining of vessels,–,–
TSP1: thrombospondin-1 prepared from human platelets,–,–,–,–,–,–,–,–,–,–,–,–,completely abrogated,complete inhibition of an NO-driven cGMP flux
